Results taken from PubChem BioAssay (NCI).
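Dose response: 5 concentrations. Exposure: 48 h. Format: 96-well plates. Endpoint: linear interpolation; highest concentration if not reached. GI50: concentration for 50% inhibition of growth. TGI is the concentration that stops growth completely.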

Assays:
Experiment in all cases: NCI tumour cell line growth inhibition, 48 h; in the data active = GI50 below about 0.43 µM; inactive = the rest
[1] = test system: 786-0 renal
[2] = test system: A498 renal
[3] = test system: A549 NSCLC
[4] = test system: ACHN renal
[5] = test system: BT-549 breast
[6] = test system: CAKI-1 renal
[7] = test system: CCRF-CEM leukemia
[8] = test system: COLO 205 colon
[9] = test system: DU-145 prostate
[10] = test system: EKVX NSCLC
[11] = test system: HCC-2998 colon
[12] = test system: HCT-116 colon
[13] = test system: HCT-15 colon
[14] = test system: HL-60(TB) leukemia
[15] = test system: HOP-62 NSCLC
[16] = test system: HOP-92 NSCLC
[17] = test system: HS 578T breast
[18] = test system: HT29 colon
[19] = test system: IGROV1 ovarian
[20] = test system: K-562 leukemia
[21] = test system: KM12 colon
[22] = test system: LOX IMVI melanoma
[23] = test system: M14 melanoma
[24] = test system: MALME-3M melanoma
[25] = test system: MCF7 breast
[26] = test system: MDA-MB-231 breast
[27] = test system: MDA-MB-435
[28] = test system: MDA-MB-468 breast
[29] = test system: NCI-H226 lung
[30] = test system: NCI-H23 lung
[31] = test system: NCI-H460 lung
[32] = test system: NCI-H522 lung
[33] = test system: NCI/ADR-RES ovarian
[34] = test system: OVCAR-3 ovarian
[35] = test system: OVCAR-5 ovarian
[36] = test system: OVCAR-8 ovarian
[37] = test system: PC-3 prostate
[38] = test system: RPMI-8226 leukemia
[39] = test system: RXF 393 renal
[40] = test system: SF-268 CNS
[41] = test system: SF-295 CNS
[42] = test system: SF-539 CNS
[43] = test system: SK-MEL-2 melanoma
[44] = test system: SK-MEL-28 melanoma
[45] = test system: SK-MEL-5 melanoma
[46] = test system: SK-OV-3 ovarian
[47] = test system: SN12C renal
[48] = test system: SNB-19 CNS
[49] = test system: SNB-75 CNS
[50] = test system: SW-620 colon
[51] = test system: T-47D breast
[52] = test system: TK-10 renal
[53] = test system: U251 CNS
[54] = test system: UACC-257 melanoma
[55] = test system: UACC-62 melanoma
[56] = test system: UO-31 renal

CN(C)c1nc(NCCNS(=O)(=O)c2ccc(C3=Nc4c(N)nc(N)nc4NC(c4ccc(Cl)cc4)C3)cc2)nc(Nc2ccc(F)cc2)n1 (configuration not stated)
11.5 µM: TGI [23]
7.54 µM: TGI [18]
65.7 µM: TGI [26]
13.2 µM: TGI [16]
13.3 µM: TGI [14]
18.4 µM: TGI [11]
28.7 µM: TGI [5]
4.92 µM: TGI [28]
14 µM: TGI [43]
8.75 µM: TGI [39]
3.55 µM: TGI [22]
14.3 µM: TGI [45]
19.2 µM: TGI [24]
25.6 µM: TGI [8]
> 100 µM: TGI [1] | TGI [2] | TGI [3] | TGI [4] | TGI [6] | TGI [7] | TGI [9] | TGI [10] | TGI [12] | TGI [13] | TGI [15] | TGI [17] | TGI [19] | TGI [20] | TGI [21] | TGI [25] | TGI [27] | TGI [29] | TGI [30] | TGI [31] | TGI [32] | TGI [33] | TGI [34] | TGI [35] | TGI [36] | TGI [37] | TGI [38] | TGI [40] | TGI [41] | TGI [42] | TGI [44] | TGI [46] | TGI [47] | TGI [48] | TGI [49] | TGI [50] | TGI [51] | TGI [52] | TGI [53] | TGI [54] | TGI [55] | TGI [56]
inactive: GI50 [1] 6.21 µM | GI50 [2] 58.4 µM | GI50 [3] > 100 µM | GI50 [4] > 100 µM | GI50 [5] 3.96 µM | GI50 [6] 8.07 µM | GI50 [7] 2.92 µM | GI50 [8] 5.65 µM | GI50 [9] > 100 µM | GI50 [10] 5.05 µM | GI50 [11] 3.14 µM | GI50 [12] 3.77 µM | GI50 [13] > 100 µM | GI50 [14] 2.72 µM | GI50 [15] > 100 µM | GI50 [16] 2.53 µM | GI50 [17] 7.15 µM | GI50 [18] 2.68 µM | GI50 [19] 9.95 µM | GI50 [20] 3.08 µM | GI50 [21] 3.98 µM | GI50 [22] 1.77 µM | GI50 [23] 3.15 µM | GI50 [24] 3.86 µM | GI50 [25] 2.89 µM | GI50 [26] 3.73 µM | GI50 [27] 5.17 µM | GI50 [28] 1.92 µM | GI50 [29] > 100 µM | GI50 [30] 72.7 µM | GI50 [31] 4.49 µM | GI50 [32] 16 µM | GI50 [33] > 100 µM | GI50 [34] 7.45 µM | GI50 [35] > 100 µM | GI50 [36] > 100 µM | GI50 [37] 3.44 µM | GI50 [38] 3.19 µM | GI50 [39] 2.27 µM | GI50 [40] 5.74 µM | GI50 [41] 6.2 µM | GI50 [42] 3.3 µM | GI50 [43] 3.34 µM | GI50 [44] 8.22 µM | GI50 [45] 3.45 µM | GI50 [46] > 100 µM | GI50 [47] 7.38 µM | GI50 [48] 5.67 µM | GI50 [49] 3.76 µM | GI50 [50] 5.95 µM | GI50 [51] 7.93 µM | GI50 [52] > 100 µM | GI50 [53] 5.14 µM | GI50 [54] 8.07 µM | GI50 [55] 6.46 µM | GI50 [56] > 100 µM
